Laboratory results: publication PMC3673949, “Small Molecule R1498 as a Well-Tolerated and Orally Active Kinase Inhibitor for Hepatocellular Carcinoma and Gastric Cancer Treatment via Targeting Angiogenesis and Mitosis Pathways” (PLoS ONE, 2013)
Where two headings read alike, the source gives them in different places.

Assays:
CNE-2 xenograft = conditions: CNE-2, 100 mg/kg, every 10 days, intraperitoneal injection; for Final TGI%: day of study termination
Source text: The use and care of experimental animal was approved by Institutional Animal Care and Use Committee, Roche R&D Center (China). Tumor cells were inoculated into the right flank of BALB/C nu/nu female nude mice (5∼6 weeks, 16∼18 g, obtained from Sino-British SIPPR/BK Lab. Animal Ltd, Shanghai, China) at optimal density based on our in-house validation study. After the tumor was established and reached 100∼150 mm^3, the mice were randomized into ten mice per group and received treatment according to the schedule. The tumor growth was recorded three times a week with the measurement of length (L) and width (W) by caliper, and calculated as tumor volume (TV, mm^3) = 0.5*L*W*W (mm). […] The tumor regression of individual mouse was defined - the tumor volume at the end was less than the tumor volume when treatment was initiated.

[1] = system: colorectal cancer, breast cancer, melanoma, and leukemia xenografts; conditions: 150∼225 mg/kg once daily per oral; cited from earlier work
BEL-7402 xenograft = test: Xenograft efficacy study; assay type: in vivo, BALB/C nu/nu nude mice
BEL-7404 xenograft = test: Xenograft efficacy study; assay type: in vivo, BALB/C nu/nu nude mice; conditions: BEL-7404, 12.5 mg/kg twice a day per oral gavage
BGC-823 xenograft = test: Xenograft efficacy study; assay type: in vivo, BALB/C nu/nu nude mice; conditions: BGC-823, 25 mg/kg twice a day per oral gavage
HGC-27 xenograft = test: Xenograft efficacy study; assay type: in vivo, BALB/C nu/nu nude mice; conditions: HGC-27, 25 mg/kg twice a day per oral gavage
HCCLM3 xenograft = test: Xenograft efficacy study; assay type: in vivo, BALB/C nu/nu nude mice; conditions: HCCLM3, 12.5 mg/kg twice a day per oral gavage
[2] = system: advanced and metastatic HCC; conditions: first line therapy; placebo group 7.9 months; cited from earlier work
SGC-7901 xenograft = test: Xenograft efficacy study; assay type: in vivo, BALB/C nu/nu nude mice
Raf-1 = conditions: cited from earlier work
MGC-803 xenograft = test: Xenograft efficacy study; assay type: in vivo, BALB/C nu/nu nude mice; conditions: MGC-803, 25 mg/kg twice a day per oral gavage
KIT = conditions: cited from earlier work
Ret = conditions: cited from earlier work
[3] = day of study termination (Table S2)

SMILES: O=P1(N(CCCl)CCCl)NCCCO1 (centres unmarked) [Cyclophosphamide, cyclophosphamide]
- Final TGI% (CNE-2 xenograft): 58%
- Final TGI% (CNE-2 xenograft; listed as cyclophosphamide): 60%
- Body weight changes% (CNE-2 xenograft; before vs after treatment): -2.1%
- Tumor Regression (CNE-2 xenograft; mice with regression/group): 0/10

SMILES: Cc1cc(Nc2cc(N3CCN(C)CC3)nc(/C=C/c3ccccc3)n2)n[nH]1 [ENMD-2076]
- TGI% [1]: ~90%

SMILES: CNC(=O)c1cc(Oc2ccc(NC(=O)Nc3ccc(Cl)c(C(F)(F)F)c3)cc2)ccn1 [Sorafenib, sorafenib, reference compound]
- Final TGI% (BEL-7402 xenograft; BEL-7402, 25 mg/kg twice a day per oral gavage, day of study termination): 83%
- Body weight changes% (BEL-7402 xenograft; BEL-7402, 25 mg/kg twice a day per oral gavage, before vs after treatment): -16%
- Tumor Regression (BEL-7402 xenograft; BEL-7402, 25 mg/kg twice a day per oral gavage, mice with regression/group): 1/10
- percentage of body weight loss (BEL-7402 xenograft; BEL-7402 model, 25 mg/kg twice daily per oral, termination day): exceeded 15%
- Final TGI% (BEL-7404 xenograft; [3]): 75%
- Body weight changes% (BEL-7404 xenograft; before vs after treatment): -4.2%
- Tumor Regression (BEL-7404 xenograft; mice with regression/group): 0/10
- Final TGI% (BGC-823 xenograft; [3]): 82%
- Body weight changes% (BGC-823 xenograft; before vs after treatment): -3.5%
- Tumor Regression (BGC-823 xenograft; mice with regression/group): 0/10
- Final TGI% (HGC-27 xenograft; day of study termination): 83%
- Body weight changes% (HGC-27 xenograft; before vs after treatment): -5.5%
- Tumor Regression (HGC-27 xenograft; mice with regression/group): 0/10
- Final TGI% (HCCLM3 xenograft; day of study termination): 71%
- Body weight changes% (HCCLM3 xenograft; before vs after treatment): 4.4%
- Tumor Regression (HCCLM3 xenograft; mice with regression/group): 0/10
- median survival time [2]: 10.7 months
- Final TGI% (SGC-7901 xenograft; SGC-7901, 25 mg/kg twice a day per oral gavage, day of study termination (Table S2)): 95%
- Body weight changes% (SGC-7901 xenograft; SGC-7901, 25 mg/kg twice a day per oral gavage, before vs after treatment): -18%
- Tumor Regression (SGC-7901 xenograft; SGC-7901, 25 mg/kg twice a day per oral gavage, mice with regression/group): 2/10
- percentage of body weight loss (SGC-7901 xenograft; SGC-7901 model, 25 mg/kg twice daily per oral, termination day): exceeded 15%
- Final TGI% (MGC-803 xenograft; day of study termination): 92%
- Body weight changes% (MGC-803 xenograft; before vs after treatment): -2.4%
- Tumor Regression (MGC-803 xenograft; mice with regression/group): 2/10

SMILES: CNC(=O)c1cc(Oc2ccc(NC(=O)Nc3ccc(Cl)c(C(F)(F)F)c3)c(F)c2)ccn1 [regorafenib]
- IC50 (KIT): 7 nM
- IC50 (Ret): 1.5 nM
